Results taken from publication PMC7665585, “Antidepressive effect of an inward rectifier K^+ channel blocker peptide, tertiapin-RQ” (PLoS ONE, 2020).
Read-outs that look alike come from different tables or passages of the source. Bridge positions count the residues as written; N and C are the ends. Peptide text beside a SMILES is read from it.

Tests used:
rat ROMK = target: T1, rat ROMK (Rattus norvegicus, UniProt P35560); experiment: Whole-cell patch-clamp of ROMK currents in 208–4 cells; type: cell-based; details: for inhibition at 1 µM: blockade at 1 μM estimated from fitted Hill curve (four parameters), n = 3–6, read-out: Activity (ROMK channel blocking activity, percentage of blockade at 1 μM); for IC50: 25°C
T1 construct: expressed in transfected cells; host or cells: 293T cell line 208-4 (lentiviral transduction, GFP coexpressed)
T1 sequence (P35560 1-391): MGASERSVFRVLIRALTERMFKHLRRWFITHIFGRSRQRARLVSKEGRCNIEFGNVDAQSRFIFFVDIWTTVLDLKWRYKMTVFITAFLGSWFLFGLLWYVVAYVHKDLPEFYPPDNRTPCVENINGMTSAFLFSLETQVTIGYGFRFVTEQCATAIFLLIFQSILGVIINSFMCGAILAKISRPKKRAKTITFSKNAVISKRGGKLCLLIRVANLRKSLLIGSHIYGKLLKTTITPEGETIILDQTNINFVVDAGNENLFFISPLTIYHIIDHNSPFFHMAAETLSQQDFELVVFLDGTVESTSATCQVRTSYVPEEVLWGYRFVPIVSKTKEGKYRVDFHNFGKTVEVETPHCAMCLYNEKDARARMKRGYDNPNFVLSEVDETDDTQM
Method in brief: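 ROMK stably expressed in 208–4 cells; GIRK transiently in 293T, recorded 24 h post-transfection; 25°C, Tyrode (high-K+ 50 mM for GIRK), K-aspartate/KCl pipette with 3 mM MgATP. Steps −150 to 10 mV from −70 mV; currents 60 s after peptide; conductance from I-V slope −140 to −100 mV, Ba2+-resistant current subtracted, normalized to 0 μM TPN.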

Male ICR mice [1] = experiment: Tail suspension test (TST); type: in vivo, mouse; details: 750 pmole i.c.v., 30 min before test, 5 min recording
Experimental: We performed mouse behavioral experiments in accordance with our previous study. Male ICR mice (n = 199 in total) aged 5 weeks old were purchased from Shimizu Laboratory Supplies (Kyoto, Japan) and maintained in an animal facility for 7–12 days. They had free access to food and water and were kept in a 12-h light/dark cycle (08:00–20:00). Experiments were carried out between 11:00 and 17:00 in a quiet and air-conditioned experimental room, to which mice were habituated for 30–60 min before each experiment. Animal experiments were performed in accordance with the guidelines of the Physiological Society of Japan and were approved by the Committee for Animal Experiments of Kurashiki University of Science and the Arts. Peptides were dissolved in phosphate-buffered saline (PBS). Peptides were injected intracerebroventricularly (i.c.v.) 30 min before behavioral tests (typically 5 μL/mouse), according to a previous study. The mouse was placed into an anesthetizing jar, to which isoflurane (0.2 mL) was added immediately before. After confirming that the mouse was deeply anesthetized we injected the peptide into the right cerebral ventricle over 30 seconds and the injection needle was kept for 1 min after the injection (i.c.v. coordinates: 0 mm caudal to bregma, 1.0 mm lateral to the midline, and 3.5 mm below the skull). The mouse was placed in a cage set on a heating pad (approximately 33°C) for a few minutes until it spontaneously started to move, and then it was put back into its home cage. Each animal was used only once, except for the wheel running test, which was carried out immediately after the elevated plus-maze.
The tail suspension test (TST) was performed in accordance with the method reported previously. The mouse was hung on a hook using adhesive tape placed 2 cm from the extremity of its tail 50 cm above a table. The amount of time spent immobile was recorded for 5 min.

Male ICR mice [2] = experiment: Forced swim test (FST); type: in vivo, mouse; details: i.c.v., 30 min before test, last 4 min of 6 min
Experimental: (§1) We performed mouse behavioral experiments in accordance with our previous study. Male ICR mice (n = 199 in total) aged 5 weeks old were purchased from Shimizu Laboratory Supplies (Kyoto, Japan) and maintained in an animal facility for 7–12 days. They had free access to food and water and were kept in a 12-h light/dark cycle (08:00–20:00). Experiments were carried out between 11:00 and 17:00 in a quiet and air-conditioned experimental room, to which mice were habituated for 30–60 min before each experiment. Animal experiments were performed in accordance with the guidelines of the Physiological Society of Japan and were approved by the Committee for Animal Experiments of Kurashiki University of Science and the Arts. Peptides were dissolved in phosphate-buffered saline (PBS). Peptides were injected intracerebroventricularly (i.c.v.) 30 min before behavioral tests (typically 5 μL/mouse), according to a previous study. The mouse was placed into an anesthetizing jar, to which isoflurane (0.2 mL) was added immediately before. […]
The forced swim test (FST) was performed in accordance with the method reported previously. […] The mouse was allowed to swim for 6 min and its activity was measured. […]

Male ICR mice [3] = experiment: Elevated plus-maze (EPM); type: in vivo, mouse; details: i.c.v., 5 min
Experimental: as §1
The elevated plus maze (EPM) apparatus consisted of four arms set in a cross pattern from a neutral central square (6 × 6 cm). […] The total number of entries to open arms and time spent in the open arms was measured. […]

SMILES | inhibition at 1 µM (rat ROMK; whole-cell conductance) [%] | IC50 (rat ROMK; peptide pre-treated with protein disulfide isomerase, 30 min, n = 4 (Fig 2F), read-out: IC50, ROMK current, PDI-treated peptide) [nM] | IC50 (rat ROMK; whole-cell conductance, 60 sec after application, n = 3 (Fig 2E), read-out: IC50, ROMK current) [nM] | immobile time in TST (Male ICR mice [1]) | immobile time in FST (Male ICR mice [2]) | number of entries to the open arms in EPM (Male ICR mice [3]) | time spent in the open arms in EPM (Male ICR mice [3])
CC[C@H](C)[C@@H]1NC(=O)[C@H](CCCNC(=N)N)NC(=O)[C@H](CCCNC(=N)N)NC(=O)[C@H](CC(N)=O)NC(=O)[C@@H]2CSSC[C@@H](C(=O)NCC(=O)N[C@@H](CCCCN)C(=O)N[C@@H](CCCCN)C(N)=O)NC(=O)[C@H](CCCCN)NC(=O)[C@H](CCCCN)NC(=O)[C@H](Cc3c[nH]c4ccccc34)NC(=O)[C@H](CSSC[C@H](NC(=O)[C@H](CC(C)C)NC(=O)[C@H](C)N)C(=O)N[C@@H](CC(N)=O)C(=O)N2)NC(=O)[C@H](CCC(N)=O)NC(=O)[C@H](Cc2c[nH]cn2)NC(=O)[C@@H]2CCCN2C(=O)[C@H]([C@@H](C)CC)NC1=O [Peptide 2, TPN-RQ] (H-ALCNCNRRIIPHQCWKKCGKK-NH2; disulfide 3-14, 5-18) | > 80 | 240 | 170 |  |  |  | 
CC[C@H](C)[C@@H]1NC(=O)[C@H](CCCNC(=N)N)NC(=O)[C@H](CC(N)=O)NC(=O)[C@@H]2CSSC[C@@H](C(=O)NCC(=O)N[C@@H](CCCCN)C(=O)N[C@@H](CCCCN)C(N)=O)NC(=O)[C@H](CCCCN)NC(=O)[C@H](CCCCN)NC(=O)[C@H](Cc3c[nH]c4ccccc34)NC(=O)[C@H](CSSC[C@H](NC(=O)[C@H](CC(C)C)NC(=O)[C@H](C)N)C(=O)N[C@@H](CC(N)=O)C(=O)N2)NC(=O)[C@H](CCC(N)=O)NC(=O)[C@H](CC(C)C)NC(=O)[C@@H]2CCCN2C(=O)[C@H]([C@@H](C)CC)NC(=O)[C@H]([C@@H](C)CC)NC1=O [Peptide 3, TPN-LQ] (H-ALCNCNRIIIPLQCWKKCGKK-NH2; disulfide 3-14, 5-18; N-terminus and C-terminus assumed) | 60 to 80 |  |  | decreased the immobile time | decreased the immobile time | decreased | decreased
